Laboratory results as given in US9427409B2, “Composition and method for aiding sleep” (priority 2014, dated 2016).
Several values for one entry are separate records, joined by “and”; a condition that tells them apart may be missing. Identical values can stand only once.

Assay: In vitro pH-dependent release of each active agent from three-stage release capsules
Format: physicochemical
Conditions: individual capsules (Cap# 1-6)
Protocol: The capsules were designed to release the three drugs in a staged sequence controlled via pH-dependent coatings: uncoated diphenhydramine HCl for immediate release, coated zolpidem for release about 2 hours after administration, and coated lorazepam for release about 4 hours after administration.
Each capsule contained the following agents: (1) 50 mg of uncoated diphenhydramine HCl; (2) 5 mg of zolpidem tartrate in multiparticulate form coated with […]® L30 D-55, which dissolves at above pH 5.5 (with half-maximal drug release at pH 5.8 and maximal release at pH 6.3); and (3) 0.5 mg of lorazepam in multiparticulate form coated with […]® L/S 12.5 (1:1), which dissolves at above pH 6.5 (with half-maximal drug release at pH 7.2). The coatings were selected to achieve release of zolpidem tartrate with gastric emptying and release of lorazepam when the drug reaches the intestines.
Six capsules were individually tested in beakers for pH-dependent release of each active agent.

[1] = At 30 min in pH 2 (At time zero pH 2)
[2] = At 150 min in pH 6.4 (At 120 min changed to pH 6.4)
[3] = At 270 min in pH 7.2 (At 240 min changed to pH 7.2)

O=C1Nc2ccc(Cl)cc2C(c2ccccc2Cl)=NC1O (racemic) [Lora, (RS)-7-Chloro-5-(2-chlorophenyl)-3-hydroxy-1,3-dihydro-2H-1,4-benzodiazepin-2-one]
% Release [1]: 0% | % Release (At 30 min in pH 2 (At time zero pH 2), listed as lorazepam): neither zolpidem tartrate nor lorazepam was released | % Release [2]: 0% | % Release (At 150 min in pH 6.4 (At 120 min changed to pH 6.4), listed as lorazepam): but not lorazepam, was released | % Release [3]: 81.3% and 77.2% and 80.1% and 83.2% and 70.2% and 72.1% | % Release (At 270 min in pH 7.2 (At 240 min changed to pH 7.2), listed as lorazepam): more than 70%

CN(C)CCOC(c1ccccc1)c1ccccc1 [Diph, 2-(diphenylmethoxy)-N,N-dimethylethanamine]
% Release [1]: 93.4% and 89.8% and 98.2% and 98.7% and 96.8% and 97.3% | % Release (At 30 min in pH 2 (At time zero pH 2), listed as diphenhydramine HCl): more than 89% | % Release [2]: 98.0% and 100% (3×) and 99.9% (2×) | % Release [3]: 99.9% and 100% (2×) and 99.8% and 99.1% and 99.2%
